For one compound, EC50 results are on record in patent US10010589B2, “Modified therapeutic agents, stapled peptide lipid conjugates, and compositions thereof” (priority 2013, dated 2018).

pEC50: −log10 of the molar value. *1 amine or outer side, *2 acyl side, *3 side chain or, on linkers, in order; H or OH if unused. Where a SMILES comes first, the peptide text is derived from it. Bridges are numbered along the chain shown (N, C = ends). CH2CONH(CH2)4NHCOCH2 = O=C(C[*:1])NCCCCNC(=O)C[*:2]

This experiment has as its target T1, human Glucagon-like peptide 2 receptor (GLP-2R) (Homo sapiens, UniProt O95838).
T1 construct: expressed in transfected cells
T1 sequence (O95838 1-553): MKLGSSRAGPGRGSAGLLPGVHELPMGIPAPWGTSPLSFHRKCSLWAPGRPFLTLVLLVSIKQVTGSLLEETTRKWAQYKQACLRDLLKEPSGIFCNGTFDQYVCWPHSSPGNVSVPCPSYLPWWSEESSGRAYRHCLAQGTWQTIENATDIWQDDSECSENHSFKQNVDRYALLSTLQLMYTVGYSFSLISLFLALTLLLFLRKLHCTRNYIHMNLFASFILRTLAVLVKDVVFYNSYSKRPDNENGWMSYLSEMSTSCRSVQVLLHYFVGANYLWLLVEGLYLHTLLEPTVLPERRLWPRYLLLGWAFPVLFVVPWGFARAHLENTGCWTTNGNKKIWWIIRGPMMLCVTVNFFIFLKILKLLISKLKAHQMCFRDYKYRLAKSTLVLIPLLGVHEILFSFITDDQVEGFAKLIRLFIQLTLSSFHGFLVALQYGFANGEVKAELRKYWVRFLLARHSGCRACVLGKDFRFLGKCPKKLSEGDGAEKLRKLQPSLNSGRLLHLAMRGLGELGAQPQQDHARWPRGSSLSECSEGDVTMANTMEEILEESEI
Nature of the experiment: GLP-2R CRE luciferase assay (receptor-mediated cAMP synthesis). Format: cell-based. How it is done:
CREB responsive luciferase stable HEK 293 cell line overexpressing human glucagon receptor (GCGR), glucagon-like peptide 1 receptor (GLP-1R), Glucose-dependent insulinotropic polypeptide receptor (GIPR), or Glucagon-like peptide 2 receptor (GLP-2R) was generated as follows.
HEK293 cells were infected with lent virus encoding firefly luciferase gene under the control of CRE promoter, as described in the manual (Qiagen, Netherlands) and then were selected using 1 μg/mL puromycin (Life technologies, Carlsbad) for 1 week. The survived cells were named as CRE-HEK293, expanded and then transfected with a G418 selective mammalian expression plasmid encoding human GCGR, GLP-1R, GIPR or GLP-2R. In brief, GCGR, GLP-1R, GIPR, or GLP-2R plasmid was transfected into CRE-HEK293 cells using Lipofectamine 2000 and selected with 400 μg/mL geneticin (Life technologies, Carlsbad, Calif.). […]
HEK293-GCGR-CRE, HEK293-GLP-1R-CRE, HEK293-GIPR-CRE, and HEK293-GLP-2R-CRE cells were seeded in a white 384-well plate at a density of 5,000 cells per well and cultured for 24 hours. […] On the next day, 10 μl of Bright-Glo reagent (Promega, Madison, Wis.) were added into each well and firefly luminescence was determined using an Envision multilabel plate reader (PerkinElmer, Waltham, Mass.). EC50 of each peptide was calculated using GraphPad Prism 6 software (GraphPad, San Diego, Calif.).

The compound `CC[C@H](C)[C@@H]1NC(=O)[C@H](Cc2ccccc2)NC(=O)[C@H](CC(=O)O)NC(=O)[C@H](CCCNC(=N)N)NC(=O)[C@H](C)NC(=O)[C@H](C)NC(=O)[C@H](CC(C)C)NC(=O)[C@@H](NC(=O)[C@H](CC(=O)O)NC(=O)[C@H](CC(C)C)NC(=O)[C@@H](NC(=O)[C@@H](NC(=O)[C@H](CC(N)=O)NC(=O)[C@H](CCSC)NC(=O)[C@H](CCC(=O)O)NC(=O)[C@H](CC(=O)O)NC(=O)[C@H](CO)NC(=O)[C@H](Cc2ccccc2)NC(=O)[C@H](CO)NC(=O)CNC(=O)[C@H](CC(=O)O)NC(=O)CNC(=O)[C@@H](N)Cc2c[nH]cn2)[C@@H](C)O)[C@@H](C)CC)CSCC(=O)NCCCCNC(=O)CSC[C@@H](C(=O)N[C@@H](Cc2c[nH]c3ccccc23)C(=O)N[C@@H](CC(C)C)C(=O)N[C@H](C(=O)N[C@@H](CCC(N)=O)C(=O)N[C@H](C(=O)N[C@@H](CCCCN)C(=O)N[C@H](C(=O)N[C@H](C(=O)N[C@@H](CC(=O)O)C(N)=O)[C@@H](C)O)[C@@H](C)CC)[C@@H](C)O)[C@@H](C)CC)NC1=O` [mTA52] (H-HGDGSFSDEMNTILDCLAARDFICWLIQTKITD-NH2; linker 16-24 via CH2CONH(CH2)4NHCOCH2) showed a pEC50 of 8.25.

One may read the pEC50 as the negative decadic logarithm of the EC50, by convention in mol/L.
